#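 Results reflect a 48-hour exposure of cells in 96-well plates to compound at five concentrations. Here, GI50 denotes the concentration required for 50% inhibition of growth. At the TGI there is no net growth.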
# Columns and labels:
# Assay in all cases: growth of human tumour cells (NCI), 48 h
# MOLT-4 leukemia = system: MOLT-4 leukemia
# SK-MEL-2 melanoma = system: SK-MEL-2 melanoma
# SR leukemia = system: SR leukemia
# OVCAR-5 ovarian = system: OVCAR-5 ovarian
# SF-268 CNS = system: SF-268 CNS
# MCF7 breast = system: MCF7 breast
# 786-0 renal = system: 786-0 renal
# BT-549 breast = system: BT-549 breast
# SK-OV-3 ovarian = system: SK-OV-3 ovarian
# HS 578T breast = system: HS 578T breast
# HCC-2998 colon = system: HCC-2998 colon
# SF-295 CNS = system: SF-295 CNS
# HT29 colon = system: HT29 colon
# UACC-257 melanoma = system: UACC-257 melanoma
# SK-MEL-5 melanoma = system: SK-MEL-5 melanoma
# HOP-62 NSCLC = system: HOP-62 NSCLC
# OVCAR-4 ovarian = system: OVCAR-4 ovarian
# M14 melanoma = system: M14 melanoma
# ACHN renal = system: ACHN renal
# CAKI-1 renal = system: CAKI-1 renal
# SW-620 colon = system: SW-620 colon
# NCI-H460 lung = system: NCI-H460 lung
# PC-3 prostate = system: PC-3 prostate
# A549 NSCLC = system: A549 NSCLC
# MDA-MB-435 = system: MDA-MB-435
# SK-MEL-28 melanoma = system: SK-MEL-28 melanoma
# HCT-15 colon = system: HCT-15 colon
# OVCAR-3 ovarian = system: OVCAR-3 ovarian
# MALME-3M melanoma = system: MALME-3M melanoma
# RXF 393 renal = system: RXF 393 renal
# COLO 205 colon = system: COLO 205 colon
# HOP-92 NSCLC = system: HOP-92 NSCLC
# K-562 leukemia = system: K-562 leukemia
# SF-539 CNS = system: SF-539 CNS
# LOX IMVI melanoma = system: LOX IMVI melanoma
# MDA-MB-231 breast = system: MDA-MB-231 breast
# NCI-H522 lung = system: NCI-H522 lung
# UO-31 renal = system: UO-31 renal
# TK-10 renal = system: TK-10 renal
# UACC-62 melanoma = system: UACC-62 melanoma
# U251 CNS = system: U251 CNS
# CCRF-CEM leukemia = system: CCRF-CEM leukemia
# KM12 colon = system: KM12 colon
# NCI-H23 lung = system: NCI-H23 lung
# OVCAR-8 ovarian = system: OVCAR-8 ovarian
# HCT-116 colon = system: HCT-116 colon
# DU-145 prostate = system: DU-145 prostate
# T-47D breast = system: T-47D breast
# NCI/ADR-RES ovarian = system: NCI/ADR-RES ovarian
# NCI-H226 lung = system: NCI-H226 lung
# RPMI-8226 leukemia = system: RPMI-8226 leukemia
# SN12C renal = system: SN12C renal
# SNB-19 CNS = system: SNB-19 CNS
# IGROV1 ovarian = system: IGROV1 ovarian
# A498 renal = system: A498 renal
# EKVX NSCLC = system: EKVX NSCLC
compound,measurement,setting,value
COc1ccc(-c2nc3sccn3c2/C(N)=N/C(=N)N)cc1OC,GI50,MOLT-4 leukemia,27.6 µM
same,TGI,MOLT-4 leukemia,> 100 µM
same,GI50,SK-MEL-2 melanoma,29.4 µM
same,TGI,SK-MEL-2 melanoma,> 100 µM
same,GI50,SR leukemia,30.5 µM
same,TGI,SR leukemia,77.3 µM
same,GI50,OVCAR-5 ovarian,78 µM
same,TGI,OVCAR-5 ovarian,> 100 µM
same,GI50,SF-268 CNS,50.3 µM
same,TGI,SF-268 CNS,> 100 µM
same,GI50,MCF7 breast,56.9 µM
same,TGI,MCF7 breast,> 100 µM
same,GI50,786-0 renal,32.9 µM
same,TGI,786-0 renal,> 100 µM
same,GI50,BT-549 breast,22.8 µM
same,TGI,BT-549 breast,43.3 µM
same,GI50,SK-OV-3 ovarian,> 100 µM
same,TGI,SK-OV-3 ovarian,> 100 µM
same,GI50,HS 578T breast,35.5 µM
same,TGI,HS 578T breast,> 100 µM
same,GI50,HCC-2998 colon,43.1 µM
same,TGI,HCC-2998 colon,> 100 µM
same,GI50,SF-295 CNS,30.5 µM
same,TGI,SF-295 CNS,87.1 µM
same,GI50,HT29 colon,58.4 µM
same,TGI,HT29 colon,> 100 µM
same,GI50,UACC-257 melanoma,40.7 µM
same,TGI,UACC-257 melanoma,> 100 µM
same,GI50,SK-MEL-5 melanoma,21.3 µM
same,TGI,SK-MEL-5 melanoma,44.5 µM
same,GI50,HOP-62 NSCLC,24.6 µM
same,TGI,HOP-62 NSCLC,58.3 µM
same,GI50,OVCAR-4 ovarian,> 100 µM
same,TGI,OVCAR-4 ovarian,> 100 µM
same,GI50,M14 melanoma,29.4 µM
same,TGI,M14 melanoma,79.5 µM
same,GI50,ACHN renal,> 100 µM
same,TGI,ACHN renal,> 100 µM
same,GI50,CAKI-1 renal,87.7 µM
same,TGI,CAKI-1 renal,> 100 µM
same,GI50,SW-620 colon,28.4 µM
same,TGI,SW-620 colon,72.1 µM
same,GI50,NCI-H460 lung,46.7 µM
same,TGI,NCI-H460 lung,> 100 µM
same,GI50,PC-3 prostate,34.3 µM
same,TGI,PC-3 prostate,> 100 µM
same,GI50,A549 NSCLC,> 100 µM
same,TGI,A549 NSCLC,> 100 µM
same,GI50,MDA-MB-435,33.1 µM
same,TGI,MDA-MB-435,> 100 µM
same,GI50,SK-MEL-28 melanoma,32.5 µM
same,TGI,SK-MEL-28 melanoma,> 100 µM
same,GI50,HCT-15 colon,> 100 µM
same,TGI,HCT-15 colon,> 100 µM
same,GI50,OVCAR-3 ovarian,31.8 µM
same,TGI,OVCAR-3 ovarian,> 100 µM
same,GI50,MALME-3M melanoma,13.3 µM
same,TGI,MALME-3M melanoma,32.9 µM
same,GI50,RXF 393 renal,> 100 µM
same,TGI,RXF 393 renal,> 100 µM
same,GI50,COLO 205 colon,56.6 µM
same,TGI,COLO 205 colon,> 100 µM
same,GI50,HOP-92 NSCLC,56.5 µM
same,TGI,HOP-92 NSCLC,> 100 µM
same,GI50,K-562 leukemia,27.6 µM
same,TGI,K-562 leukemia,> 100 µM
same,GI50,SF-539 CNS,25.7 µM
same,TGI,SF-539 CNS,66 µM
same,GI50,LOX IMVI melanoma,37.5 µM
same,TGI,LOX IMVI melanoma,> 100 µM
same,GI50,MDA-MB-231 breast,17.8 µM
same,TGI,MDA-MB-231 breast,39.3 µM
same,GI50,NCI-H522 lung,7.85 µM
same,TGI,NCI-H522 lung,> 100 µM
same,GI50,UO-31 renal,7.37 µM
same,TGI,UO-31 renal,40.2 µM
same,GI50,TK-10 renal,28.6 µM
same,TGI,TK-10 renal,> 100 µM
same,GI50,UACC-62 melanoma,66 µM
same,TGI,UACC-62 melanoma,> 100 µM
same,GI50,U251 CNS,34.1 µM
same,TGI,U251 CNS,> 100 µM
same,GI50,CCRF-CEM leukemia,38.4 µM
same,TGI,CCRF-CEM leukemia,> 100 µM
same,GI50,KM12 colon,24.7 µM
same,TGI,KM12 colon,81.8 µM
same,GI50,NCI-H23 lung,> 100 µM
same,TGI,NCI-H23 lung,> 100 µM
same,GI50,OVCAR-8 ovarian,43.8 µM
same,TGI,OVCAR-8 ovarian,> 100 µM
same,GI50,HCT-116 colon,19.1 µM
same,TGI,HCT-116 colon,45.2 µM
same,GI50,DU-145 prostate,52.4 µM
same,TGI,DU-145 prostate,> 100 µM
same,GI50,T-47D breast,29.1 µM
same,TGI,T-47D breast,> 100 µM
same,GI50,NCI/ADR-RES ovarian,> 100 µM
same,TGI,NCI/ADR-RES ovarian,> 100 µM
same,GI50,NCI-H226 lung,45.1 µM
same,TGI,NCI-H226 lung,> 100 µM
same,GI50,RPMI-8226 leukemia,58.5 µM
same,TGI,RPMI-8226 leukemia,> 100 µM
same,GI50,SN12C renal,27.2 µM
same,TGI,SN12C renal,> 100 µM
same,GI50,SNB-19 CNS,35.3 µM
same,TGI,SNB-19 CNS,> 100 µM
same,GI50,IGROV1 ovarian,3.26 µM
same,TGI,IGROV1 ovarian,7.11 µM
same,GI50,A498 renal,> 100 µM
same,TGI,A498 renal,> 100 µM
same,GI50,EKVX NSCLC,66.4 µM
same,TGI,EKVX NSCLC,> 100 µM

# Reference: PubChem BioAssay (NCI)
